# What was measured:
# [1] = tested on: RSV-A2; test: Virus inhibition assay, RSV-A2 on A549 cells; assay type: cell-based; conditions: human respiratory syncytial virus, read-out: EC50 (µM) (95% CI)
# [2] = tested on: Hep-2 cells; test: Cytotoxic effect microscopically visible in the RSV-A2 screening; assay type: cell-based, human; parameters: key: -: Cytotoxic effect microscopically visible; conditions: 33 µM
# [3] = Cell viability MTS assay on MDCK cells; conditions: dog
# [4] = tested on: RSV-B; test: Virus inhibition assay, RSV strain B WV/14617/85 on Hep-2 cells; assay type: cell-based; conditions: human respiratory syncytial virus; RSV B WV/14617/85, Hep-2 cells; read-out: EC50 (µM) (95% CI)
# [5] = in vitro; conditions: human
# [6] = tested on: HCoV-OC43; test: Virus inactivation (virucidal) assay, HCoV-OC43; assay type: cell-based, human coronavirus; conditions: EC90 dose, 2 h incubation with 200,000 FFUs
# [7] = Cell viability MTS assay on Hep-2 cells; conditions: human
# [8] = tested on: IFV-A H1N1; test: Virus inhibition assay, IFV-A H1N1 on A549 cells; assay type: cell-based; conditions: Influenza A virus, read-out: EC50 (µM) (95% CI)
# [9] = tested on: RSV-A2; test: Immunofluorescence of dsRNA and viral protein, RSV-A2 in Hep-2 cells; assay type: cell-based, respiratory syncytial virus; conditions: EC50 (2µM) or 2-fold EC90 dose (30µM), 24h post-infection
# [10] = tested on: human bronchial epithelium (MucilAir); test: LDH cytotoxicity assay on 3D human bronchial epithelium; assay type: cell-based; conditions: 6 µM and 12 µM, harvested daily up to 72 h
# [11] = Cell viability MTS assay on MRC-5 cells; assay type: cell-based; conditions: human, same conditions as HCoV inhibition assay, read-out: CC50 (µM) (95% CI)
# [12] = tested on: IFV-A H3N2; test: Virus inhibition assay, IFV-A H3N2 on MDCK cells; assay type: cell-based; conditions: Influenza A virus, read-out: EC50 (µM) (95% CI)
# [13] = tested on: RSV-A2; test: Virus inactivation (virucidal) assay, RSV-A2; assay type: cell-based, respiratory syncytial virus; conditions: EC90 dose, 2 h incubation with 200,000 PFUs
# [14] = tested on: IFV-B; test: Virus inhibition assay, IFV-B on MDCK cells; assay type: cell-based; conditions: unidentified influenza virus, read-out: EC50 (µM) (95% CI)
# [15] = tested on: HCoV-OC43; test: Virus inhibition assay (focus reduction), HCoV-OC43 on MRC-5 cells; assay type: cell-based, human coronavirus; conditions: Betacoronavirus 1, OC43, MRC5, read-out: EC50 (µM) (95% CI)
# [16] = tested on: HCoV-OC43; test: Time-of-addition assay, HCoV-OC43; assay type: cell-based, human coronavirus; conditions: for EC50: Betacoronavirus 1, HCoV-OC43
# [17] = tested on: RSV-A2; test: Time-of-addition assay, RSV-A2; assay type: cell-based, respiratory syncytial virus
# [18] = tested on: HCoV-229E; test: Virus inhibition assay, HCoV-229E on MRC-5 cells; assay type: cell-based; conditions: Human coronavirus 229E, MRC5, read-out: EC50 (µM) (95% CI)
# [19] = tested on: RSV-A2; test: Anti-RSV activity on a 3D model of human bronchial epithelium; assay type: cell-based, respiratory syncytial virus; conditions: for Reduction in RSV progeny: 72 h post-infection, 10,000 PFUs
# [20] = tested on: IFV-A H1N1; test: Virus inhibition assay (focus reduction), IFV-A H1N1 on MDCK cells; assay type: cell-based; conditions: Influenza A virus, read-out: EC50 (µM) (95% CI)
# [21] = tested on: RSV-A2; test: Virus inhibition assay (plaque reduction), RSV-A2 on Hep-2 cells; assay type: cell-based; conditions: human respiratory syncytial virus; RSV-A2, Hep-2 cells; read-out: EC50 (µM) (95% CI)
# [22] = tested on: HCoV-OC43; test: Virus inhibition assay, HCoV-OC43 on A549 cells; assay type: cell-based, human coronavirus; conditions: Betacoronavirus 1, read-out: EC50 (µM) (95% CI)
smiles,measurement,setting,value
CC(C)(CC(=O)O)NC(=O)c1cc(-c2ccccc2)c(=O)n2c1sc1ccc(OC3CCCCC3)cc12 [Compound 1],EC50,[1],7.78 µM
same,Cytotoxic effect microscopically visible,[2],- ^a
same,CC50,[3],41.1 µM
same,EC50,[4],4.23 µM
same,CC50,[5],57.6 µM
same,CC50,"[5]; CC50 (µM) (95% CI), A549 cells, HCoV OC43 assay conditions",150 µM
same,CC50,"[5]; CC50 (µM) (95% CI), A549 cells, RSV A2 assay conditions",30.8 µM
same,Virucidal activity: HCoV-OC43 titer,[6],modest—although negligible—reduction
same,CC50,[7],61.3 µM
same,EC50,[8],6.29 µM
same,Effect on nucleic acid replication and viral protein production of RSV-A2,[9],did not inhibit
same,Cytotoxic effect on the epithelia (LDH assay on basal media),[10],did not exert any cytotoxic effect
same,CC50,[11],59.6 µM
same,EC50,[12],5.96 µM
same,Virucidal activity on extracellular RSV particle,[13],did not directly inactivate
same,EC50,[14],4.21 µM
same,EC50,[15],4.83 µM
same,EC50,"[16]; after infection, read-out: EC50, post-treatment",7.5 µM
same,EC50,"[16]; during infection, read-out: EC50, co-treatment",16.3 µM
same,"Activity against HCoV-OC43, treatment before the infection",[16]; pre-treatment,did not exert inhibitory activity
same,"Activity against RSV, pre-treatment",[17]; compound added 2 h before infection,not active
same,"Activity against RSV, co-treatment","[17]; compound added with virus inoculum, first 2 h of infection",not active
same,EC50,"[17]; human respiratory syncytial virus, RSV, treated 72 h after removal of viral inoculum, read-out: EC50, post-treatment",8.2 µM
same,EC50,[18],45.3 µM
same,Reduction in RSV progeny,[19]; 6 µM every 24 h,1.1 log
same,Reduction in RSV progeny,[19]; 12 µM every 24 h,1.5 log
same,Morphology of the bronchial epithelial cells in infected treated sample,"[19]; brightfield images, compared to infected untreated",sufficiently preserved
same,Anti-RSV immunopositivity of the epithelia,"[19]; end of experiment, immunofluorescence",reduction in immunopositivity
same,EC50,[20],5.49 µM
same,EC50,[21],1.3 µM
same,EC50,[22],8.14 µM
